Measured values reported in ChEMBL document CHEMBL1201862, “PubChem BioAssay data set” (2004).
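Following 48 hours of exposure in 96-well plates, responses at five concentrations were used to interpolate endpoints linearly. Here, GI50 denotes the concentration required for 50% inhibition of growth.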 Activity calls are given as the source filed them. No stated cut-off is given here; in the data, active = GI50 up to about 1.1 µM and inactive = higher.

Experiments:
Assay in all cases: NCI tumour cell line growth inhibition, 48 h
[1] = system: CAKI-1
[2] = system: Malme-3M
[3] = system: Hs-578T
[4] = system: SR
[5] = system: SW-620
[6] = system: MOLT-4
[7] = system: RPMI-8226
[8] = system: NCI-H23
[9] = system: HCT-116
[10] = system: BT-549
[11] = system: OVCAR-5
[12] = system: SK-OV-3
[13] = system: HCT-15
[14] = system: 786-0
[15] = system: T47D
[16] = system: RXF 393
[17] = system: SF-295
[18] = system: OVCAR-8
[19] = system: MDA-MB-231
[20] = system: HT-29

| Compound | GI50 [1] | GI50 [2] | GI50 [3] | GI50 [4] | GI50 [5] | GI50 [6] | GI50 [7] | GI50 [8] | GI50 [9] | GI50 [10] | GI50 [11] | GI50 [12] | GI50 [13] | GI50 [14] | GI50 [15] | GI50 [16] | GI50 [17] | GI50 [18] | GI50 [19] | GI50 [20] |
| --- | --- | --- | --- | --- | --- | --- | --- | --- | --- | --- | --- | --- | --- | --- | --- | --- | --- | --- | --- | --- |
| COc1ccc(C2=NNC(=O)c3ccccc3N2c2nc(-c3cccs3)nc3ccc(Br)cc23)cc1 | 76.2 µM (inactive) | 25.2 µM (inactive) | 35.1 µM (inactive) | 42 µM (inactive) | 91.4 µM (inactive) | 65.8 µM (inactive) | 52.2 µM (inactive) | 31 µM (inactive) | 69.5 µM (inactive) | 37.5 µM (inactive) | 61.4 µM (inactive) | 53.7 µM (inactive) | 34.2 µM | 25.8 µM (inactive) | 23.7 µM (inactive) | 68.4 µM (inactive) | 20.6 µM (inactive) | 53.5 µM (inactive) | 43.2 µM (inactive) | > 100 µM (inactive) |
| Brc1cccc(/N=N/N2CCCC2)c1 | 75.5 µM (inactive) |  | > 100 µM (inactive) | 27.4 µM (inactive) | > 100 µM (inactive) | 71.8 µM (inactive) | 17.2 µM (inactive) | 67.9 µM (inactive) | 92.3 µM (inactive) | 68.9 µM (inactive) | > 100 µM (inactive) | > 100 µM (inactive) | 49.4 µM | > 100 µM (inactive) | 50.2 µM (inactive) | > 100 µM (inactive) | 97.5 µM (inactive) | > 100 µM (inactive) | > 100 µM (inactive) |  |
| CN1CCC23c4c5ccc(O)c4OC2c2[nH]c4ccccc4c2CC3(O)C1C5 (centres undefined) | 47.1 µM (inactive) | 20.6 µM (inactive) | 24.2 µM (inactive) | 26.6 µM (inactive) | 22.4 µM (inactive) | 18.6 µM (inactive) | 19.5 µM (inactive) | > 100 µM (inactive) | 35.4 µM (inactive) | 45.1 µM (inactive) | > 100 µM (inactive) | > 100 µM (inactive) | 25.6 µM | 18.7 µM (inactive) | 20.8 µM (inactive) | 23.5 µM (inactive) | 52.4 µM (inactive) | 54.8 µM (inactive) | 31.5 µM (inactive) | 31.9 µM (inactive) |
| C=CCN1C[C@@H](C)N([C@@H](c2ccc(C(=O)N(CC)CC)cc2)c2cccc(OC)c2)C[C@@H]1C | > 100 µM (inactive) | > 100 µM (inactive) | > 100 µM (inactive) | > 100 µM (inactive) | > 100 µM (inactive) | > 100 µM (inactive) | > 100 µM (inactive) | > 100 µM (inactive) | > 100 µM (inactive) | > 100 µM (inactive) | > 100 µM (inactive) | > 100 µM (inactive) | > 100 µM | > 100 µM (inactive) | > 100 µM (inactive) |  | > 100 µM (inactive) | > 100 µM (inactive) | > 100 µM (inactive) | > 100 µM (inactive) |
| O=C(CCN1CCOCC1)Nc1ccc(F)cc1F | > 100 µM (inactive) | > 100 µM (inactive) | > 100 µM (inactive) | > 100 µM (inactive) | > 100 µM (inactive) | > 100 µM (inactive) | > 100 µM (inactive) | > 100 µM (inactive) | > 100 µM (inactive) | > 100 µM (inactive) | > 100 µM (inactive) | > 100 µM (inactive) | > 100 µM | > 100 µM (inactive) | > 100 µM (inactive) |  | > 100 µM (inactive) | > 100 µM (inactive) | > 100 µM (inactive) | > 100 µM (inactive) |
| COC(=O)CN1SC2(SC13C(C)(C)C(=O)C3(C)C)C(C)(C)C(=O)C2(C)C | 54.2 µM (inactive) | 50.6 µM (inactive) | > 100 µM (inactive) | 81.8 µM (inactive) | 68.7 µM (inactive) | 37 µM (inactive) | 49.8 µM (inactive) | > 100 µM (inactive) | 46 µM (inactive) | 27.8 µM (inactive) | > 100 µM (inactive) | 41 µM (inactive) | > 100 µM | > 100 µM (inactive) | > 100 µM (inactive) |  | 48.3 µM (inactive) | 64.4 µM (inactive) | 77.3 µM (inactive) | > 100 µM (inactive) |
| CC12CCc3ccccc3C1=Nc1ccccc12 (centres undefined) | 17.7 µM (inactive) | 28.1 µM (inactive) | 2.14 µM (inactive) | 45.3 µM (inactive) | 45.9 µM (inactive) | 30.4 µM (inactive) |  | 31.1 µM (inactive) | 32.7 µM (inactive) | 17.8 µM (inactive) | > 100 µM (inactive) | > 100 µM (inactive) | 38.1 µM | 49.2 µM (inactive) | 21.1 µM (inactive) | 74.3 µM (inactive) | 44.4 µM (inactive) | 42.5 µM (inactive) | 24.2 µM (inactive) | 29.9 µM (inactive) |
